Laboratory results from US6413517B1, “Identification of broadly reactive DR restricted epitopes” (Epimmune, Inc., priority 1997, dated 2002).
Read-outs that look alike come from different tables or passages of the source.

Tests used:
[1] = target: T1, DRB1*0101 (DR1) (Homo sapiens, UniProt P01903+P01911, A100R/D57E/F55L/F60I/F76Y/I96L/L162R/M171V/P40L/Q125E/R42F/V115G/Y59C); test: biochemical; type: binding; details: Binding Capacity (IC 50% nM) DR1,4,7 DRB1
T1 construct: Epstein-Barr virus (EBV) transformed homozygous cell lines were used as sources; endogenous in cells; host or cells: LG2 (EBV-transformed homozygous B cell line)

[2] = target: T2, DRB1*0401 (DR4w4) (Homo sapiens, UniProt P01903+P01911, A100K/A169T/F76Y/I96L/K127E/L162R/M171V/N62H/P40V/Q125Y/R42H/S133A/S149N/S66Y/V115G/V209L/W38E); test: biochemical; type: binding
T2 construct: Epstein-Barr virus (EBV) transformed homozygous cell lines were used as sources; endogenous in cells; host or cells: PREISS (EBV-transformed homozygous B cell line)

[3] = target: T3, DRB1*0701 (DR7) (Homo sapiens, UniProt P01903+P01911, A100R/A102G/A103Q/D57E/D86V/E43K/F76Y/K127E/L162R/M171V/P40G/Q125H/Q99D/R33Q/R42Y/R54Q/S133A/S66F/T210M/V115G/Y107V/Y59L/Y89S); test: biochemical; type: binding
T3 construct: Epstein-Barr virus (EBV) transformed homozygous cell lines were used as sources; endogenous in cells; host or cells: PITOUT (EBV-transformed homozygous B cell line)

[4] = target: T4, DRB1*1501 (DR2w2b) (Homo sapiens, UniProt P01903+P01911); test: biochemical; type: binding
T4 construct: expressed in transfected cells; host or cells: transfected fibroblasts L466.1

[5] = target: T5, DRB5*0101 (DR2w2a) (Homo sapiens, UniProt P01903+Q30154); test: biochemical; type: binding
T5 construct: Epstein-Barr virus (EBV) transformed homozygous cell lines were used as sources; endogenous in cells; host or cells: GM3107 (EBV-transformed homozygous B cell line)

[6] = target: T6, DRB1*0405 (DR4w15) (Homo sapiens, UniProt P01903+P01911, A100R/A169T/D86S/F76Y/I96L/K127E/L162R/M171V/N62H/P40V/Q125Y/R42H/S133A/S149N/S66Y/V115G/V209L/W38E); test: biochemical; type: binding
T6 construct: Epstein-Barr virus (EBV) transformed homozygous cell lines were used as sources; endogenous in cells; host or cells: KT3 (EBV-transformed homozygous B cell line)

[7] = target: T7, DRB1*1101 (DR5w11) (Homo sapiens, UniProt P01903+P01911, A100R/A169T/A87E/I96F/K41T/L162R/M171V/P40S/Q125H/Q178H/Q39Y/Q99D/R42S/S66Y/T262R/V115G/W38E); test: biochemical; type: binding
T7 construct: Epstein-Barr virus (EBV) transformed homozygous cell lines were used as sources; endogenous in cells; host or cells: SWEIG (EBV-transformed homozygous B cell line)
T7 sequence (P01903 26-254, other chains not shown): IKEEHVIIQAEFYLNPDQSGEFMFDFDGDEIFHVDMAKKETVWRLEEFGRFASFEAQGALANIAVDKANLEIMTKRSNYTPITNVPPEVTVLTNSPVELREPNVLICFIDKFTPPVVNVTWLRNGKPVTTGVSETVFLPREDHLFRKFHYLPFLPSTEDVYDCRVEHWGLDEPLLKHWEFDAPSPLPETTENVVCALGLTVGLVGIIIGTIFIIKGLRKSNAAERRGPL

[8] = target: T8, DRB1*1302 (DR6w19) (Homo sapiens, UniProt P01903+P01911, A100E/A169T/K41T/L162R/M171V/P40S/Q125H/Q178H/Q39Y/Q99D/R42S/S66N/T262R/V115G/W38E/Y61H); test: biochemical; type: binding; details: Binding Capacity (IC 50% nM) Other Alleles DR6w19
T8 construct: Epstein-Barr virus (EBV) transformed homozygous cell lines were used as sources; the source of Class II molecules the EBV transformed homozygous cell line H0301; endogenous in cells; host or cells: H0301 (EBV-transformed homozygous B cell line)

[9] = target: T9, DRB1*0802 (DR8w2) (Homo sapiens, UniProt P01903+P01911, A100R/A103L/A169T/F76Y/H45Y/I96F/K41T/L162R/M171V/P40S/Q125H/Q178H/Q39Y/Q99D/R218S/R42G/S66Y/V115G/W38E); test: biochemical; type: binding
T9 construct: Epstein-Barr virus (EBV) transformed homozygous cell lines were used as sources; endogenous in cells; host or cells: OLL (EBV-transformed homozygous B cell line)

[10] = target: T10, DRB1*0901 (DR9) (Homo sapiens, UniProt P01903+P01911, A100R/A103E/D57H/D86V/F55Y/F60I/F76Y/I96F/K127E/L162R/M171V/P40D/Q125H/Q99R/R33Q/R42F/S133A/S66N/T210M/V115G/W38K/Y107V/Y59G/Y89S); test: biochemical; type: binding; details: Binding Capacity (IC 50% nM) Other Alleles DR9
T10 construct: Epstein-Barr virus (EBV) transformed homozygous cell lines were used as sources; endogenous in cells

[11] = target: T11, DRB1*1201 (DR5w12) (Homo sapiens, UniProt P01903+P01911, A100R/A169T/D57E/D86V/F55L/H45Y/K41T/L162R/M171V/P40S/Q125H/Q178H/Q39Y/Q99D/R42G/S66L/T262R/V114A/V67L/W38E/Y59H/Y61H/Y89S); test: biochemical; type: binding
T11 construct: Epstein-Barr virus (EBV) transformed homozygous cell lines were used as sources; endogenous in cells; host or cells: Herluf (EBV-transformed homozygous B cell line)

[12] = target: T12, DRB1*0301 (DR3w17) (Homo sapiens, UniProt P01903+P01911, A100K/A102G/A103R/A169T/F55Y/I96L/K41T/L162R/M171V/P40S/Q125H/Q178H/Q39Y/R42S/S66N/T106N/T262R/W38E/Y61H); details: read-out: Binding Capacity (IC 50% nM) Other Alleles DR3
[13] = target: T12, DRB1*0301 (DR3w17); test: biochemical
[14] = Binding Capacity (IC 50% nM) DR1,4,7 DR4w4
[15] = Binding Capacity (IC50% nM) DR2w2b
[16] = read-out: Binding Capacity (IC 50% nM) Other Alleles DR2w2b
[17] = read-out: Binding Capacity (IC 50% nM) Other Alleles DR4w15
[18] = Binding Capacity (IC50% nM) DR5w11
[19] = read-out: Binding Capacity (IC 50% nM) Other Alleles DR5w11
[20] = read-out: Binding Capacity (IC 50% nM) Other Alleles DR8w2
[21] = read-out: Binding Capacity (IC 50% nM) Other Alleles DR5w12
[22] = Binding Capacity (IC50% nM) DR3
[23] = Binding Capacity (IC50% nM) DR4w4
[24] = Binding Capacity (IC 50% nM) DR1,4,7 DR7
[25] = Binding Capacity (IC 50% nM) Other Alleles DR2w2b
[26] = Binding Capacity (IC 50% nM) Other Alleles DR2w2a
[27] = Binding Capacity (IC 50% nM) Other Alleles DR8w2
[28] = Binding Capacity (IC50% nM) DR5w12

## CC(C)[C@H](NC(=O)[C@H](Cc1ccccc1)NC(=O)[C@@H](N)CCCCN)C(=O)N[C@H](C(=O)N1CCC[C@H]1C(=O)NCC(=O)N[C@@H](C)C(=O)N[C@@H](C)C(=O)N[C@H](C(=O)N1CCC[C@H]1C(=O)N[C@@H](Cc1ccc(O)cc1)C(=O)N[C@@H](C)C(=O)NCC(=O)N[C@@H](CCC(=O)O)C(=O)N1CCC[C@H]1C(=O)O)[C@@H](C)O)C(C)C [Peptide F107.17]
[1]
  IC50: < 1000 nM
[2]; [14]
  IC50: < 1000 nM
[3]; Binding Capacity (IC50% nM) DR7
  IC50: > 10000 nM
[3]; read-out: Binding Capacity (IC 50% nM) DR1,4,7 DR7
  IC50: > 1000 nM
[4]; [15]
  IC50: > 10000 nM
[4]; [16]
  IC50: > 1000 nM
[5]; Binding Capacity (IC50% nM) DR2w2a
  IC50: > 10000 nM
[5]; read-out: Binding Capacity (IC 50% nM) Other Alleles DR2w2a
  IC50: > 1000 nM
[6]; [17]
  IC50: > 1000 nM
[7]; [18]
  IC50: > 10000 nM
[7]; [19]
  IC50: > 1000 nM
[8]
  IC50: < 1000 nM
[9]; [20]
  IC50: > 1000 nM
[10]
  IC50: < 1000 nM
[11]; [21]
  IC50: > 1000 nM
[12]
  IC50: > 1000 nM

## CC[C@H](C)[C@H](NC(=O)[C@H](C)NC(=O)[C@H](CC(C)C)NC(=O)[C@H](CCCCN)NC(=O)[C@H](CCCNC(=N)N)NC(=O)[C@@H](N)CCSC)C(=O)N[C@@H](CC(C)C)C(=O)N[C@@H](CO)C(=O)N[C@H](C(=O)N[C@@H](CO)C(=O)N[C@@H](CO)C(=O)N[C@@H](Cc1ccccc1)C(=O)N[C@@H](CC(C)C)C(=O)N[C@@H](Cc1ccccc1)C(=O)N[C@H](C(=O)O)C(C)C)C(C)C [Peptide 27.388]
[1]
  IC50: < 1000 nM
[13]; [22]
  IC50: > 10000 nM

## CC(C)C[C@H](NC(=O)CN)C(=O)N[C@@H](C)C(=O)N[C@@H](Cc1ccc(O)cc1)C(=O)N[C@@H](CCCCN)C(=O)N[C@@H](Cc1ccccc1)C(=O)N[C@H](C(=O)N[C@H](C(=O)N1CCC[C@H]1C(=O)NCC(=O)N[C@@H](C)C(=O)N[C@@H](C)C(=O)N[C@H](C(=O)N1CCC[C@H]1C(=O)N[C@@H](Cc1ccc(O)cc1)C(=O)O)[C@@H](C)O)C(C)C)C(C)C [Peptide 1188.32]
[4]; [15]
  IC50: > 10000 nM
[4]; [16]
  IC50: > 1000 nM
[12]
  IC50: > 1000 nM
[13]; [22]
  IC50: > 10000 nM

## CSCC[C@H](NC(=O)[C@H](C)NC(=O)[C@H](CC(C)C)NC(=O)[C@@H]1CCCN1C(=O)[C@@H](NC(=O)[C@H](C)NC(=O)[C@H](Cc1c[nH]cn1)NC(=O)[C@H](CC(N)=O)NC(=O)[C@@H](NC(=O)[C@H](Cc1c[nH]c2ccccc12)NC(=O)[C@H](CC(N)=O)NC(=O)[C@H](Cc1c[nH]cn1)NC(=O)[C@@H](N)CCCNC(=N)N)C(C)C)C(C)C)C(=O)N[C@@H](CCCCN)C(=O)N[C@@H](CC(C)C)C(=O)O [Peptide 1188.45]
[1]
  IC50: < 1000 nM
[2]; [14]
  IC50: < 1000 nM
[2]; [23]
  IC50: 9 nM
[3]; [24]
  IC50: < 1000 nM
[4]; [25]
  IC50: < 1000 nM
[5]; [26]
  IC50: < 1000 nM
[6]; [17]
  IC50: > 1000 nM
[7]; [19]
  IC50: > 1000 nM
[8]
  IC50: < 1000 nM
[9]; [27]
  IC50: < 1000 nM
[10]
  IC50: < 1000 nM
[11]; [28]
  IC50: > 10000 nM
[11]; [21]
  IC50: > 1000 nM
[13]; Binding Capacity (IC 50% nM) Other Alleles DR3
  IC50: < 1000 nM

## CC[C@H](C)[C@H](NC(=O)[C@H](CO)NC(=O)[C@H](CO)NC(=O)[C@H](CC(N)=O)NC(=O)[C@@H](NC(=O)[C@@H](NC(=O)[C@H](CC(N)=O)NC(=O)[C@@H](N)Cc1ccccc1)C(C)C)C(C)C)C(=O)NCC(=O)N[C@@H](CC(C)C)C(=O)N[C@H](C(=O)N[C@@H](CCSC)C(=O)N[C@H](C(=O)N[C@@H](CC(C)C)C(=O)N[C@@H](CO)C(=O)O)C(C)C)[C@@H](C)CC [Peptide 27.384]
[2]; [23]
  IC50: > 10000 nM
[2]; read-out: Binding Capacity (IC 50% nM) DR1,4,7 DR4w4
  IC50: > 1000 nM
[6]; Binding Capacity (IC50% nM) DR4w15
  IC50: > 10000 nM
[6]; [17]
  IC50: > 1000 nM
[7]; [18]
  IC50: > 10000 nM
[7]; [19]
  IC50: > 1000 nM
[9]; Binding Capacity (IC50% nM) DR8w2
  IC50: > 10000 nM
[9]; [20]
  IC50: > 1000 nM
[11]; [28]
  IC50: > 10000 nM
[11]; [21]
  IC50: > 1000 nM
[12]
  IC50: > 1000 nM
[13]; [22]
  IC50: > 10000 nM

## CC[C@H](C)[C@H](NC(=O)[C@H](CC(C)C)NC(=O)[C@H](CCCCN)NC(=O)[C@H](CCSC)NC(=O)[C@H](C)NC(=O)[C@H](CC(C)C)NC(=O)[C@@H]1CCCN1C(=O)[C@@H](NC(=O)[C@H](C)NC(=O)[C@H](Cc1c[nH]cn1)NC(=O)[C@H](CC(N)=O)NC(=O)[C@@H](NC(=O)[C@H](Cc1c[nH]c2ccccc12)NC(=O)[C@H](CC(N)=O)NC(=O)[C@@H](N)Cc1c[nH]cn1)C(C)C)C(C)C)C(=O)O [Peptide 1188.34]
[1]
  IC50: < 1000 nM
[2]; [14]
  IC50: < 1000 nM
[3]; [24]
  IC50: < 1000 nM
[4]; [25]
  IC50: < 1000 nM
[5]; [26]
  IC50: < 1000 nM
[6]; Binding Capacity (IC 50% nM) Other Alleles DR4w15
  IC50: < 1000 nM
[7]; [19]
  IC50: > 1000 nM
[8]
  IC50: < 1000 nM
[9]; [27]
  IC50: < 1000 nM
[10]
  IC50: < 1000 nM
[11]; Binding Capacity (IC 50% nM) Other Alleles DR5w12
  IC50: < 1000 nM
[12]
  IC50: > 1000 nM
